Paper PMC9418190, “UDP-glucose, cereblon-dependent proinsulin degrader” (Scientific Reports, 2022)

Biological target: T1, cereblon (Mus musculus, UniProt Q8C7D2)
T1 construct: gene Crbn
T1 sequence (Q8C7D2 1-445): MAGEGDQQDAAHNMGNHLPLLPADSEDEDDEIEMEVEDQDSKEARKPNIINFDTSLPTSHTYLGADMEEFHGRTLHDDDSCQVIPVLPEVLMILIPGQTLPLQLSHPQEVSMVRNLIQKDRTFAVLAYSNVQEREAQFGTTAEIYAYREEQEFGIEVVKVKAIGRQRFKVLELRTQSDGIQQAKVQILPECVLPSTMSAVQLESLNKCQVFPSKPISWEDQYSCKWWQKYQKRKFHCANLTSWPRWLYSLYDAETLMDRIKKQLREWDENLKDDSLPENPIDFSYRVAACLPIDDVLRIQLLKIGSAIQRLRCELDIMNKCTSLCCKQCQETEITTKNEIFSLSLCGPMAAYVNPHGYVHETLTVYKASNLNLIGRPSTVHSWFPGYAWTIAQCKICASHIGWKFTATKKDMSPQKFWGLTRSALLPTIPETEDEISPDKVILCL
Assay: dose-dependent protection of proinsulin from cereblon-dependent degradation in NIT1 cells
Type: cell-based

O=C1CCC(=O)N1 [succinimide]
dose-dependent protection of proinsulin from cereblon-dependent degradation in N: In fact, succinimide binds to cereblon, protects proinsulin degradation from proinsulin degrader X in a dose-dependent manner
